# Assay results reported in patent US6875766B2, “Use of riboflavin and flavin derivatives as chitinase inhibitors” (Bayer AG, priority 2000, dated 2005).
# What was measured:
# [1] = test system: Periplaneta americana, third instar; assay: Injection test with Periplaneta larvae; type: in vivo; details: 2 μg injected per larva; observed over 23 days
# Method: Injection test with Periplaneta larvae
# Test animals: Periplaneta americana, third instar
# The compounds are prepared in aqueous solution (0.1 N acetic acid) and diluted as required. Using a 10 μl Hamilton syringe, 1 μl of the 20 or 2 μg were injected behind the 3rd pair of legs closely underneath the abdominal cavity of the cockroach larvae. Solvent (0.1 N acetic acid) was applied as control and 10 μg allosamidine as positive control. Batches of twenty cockroach larvae were treated per concentration and compound. On day 1, the control mortality and the initial mortality caused essentially by artificial effects during the injection were determined. If this initial mortality was less than 50%, the experiment was continued. The cockroach larvae were placed on filter paper in standard Petri dishes (9.5 cm Ø), and a quarter of a wafer was added. The ecdysis rate of the control animals and of the treated cockroach larvae was observed over a period of 23 days, and larval mortality and inhibition of ecdysis were recorded after days 1, 5 and 23. The efficacy is calculated using the following formula. [formula]
# [2] = test system: Vibrio alginolyticus chitinase (Kyowa Medex); assay: Chitinase inhibitory activity against Vibrio alginolyticus chitinase; type: biochemical; details: at 100 μM (37° C.)
# Method: (§1) The chitinase inhibitory activity was determined as already described [Omura, S., Arai, N., Yamaguchi, Y., Masuma, R., Iwai, Y., Namikoshi, M., Turberg, A., Kölbl, H., Shiomi, K., J. Antibiot., 53, 603-608 (2000)].
# [3] = target: Lucilia cuprina chitinase; assay: Chitinase inhibitory activity (IC50) against Lucilia cuprina chitinase; type: biochemical
# Method: as §1
# [4] = test system: Lucilia cuprina endochitinase; assay: Chitinase test with soluble extracts from Lucilia cuprina puppae; type: biochemical; details: cytosolic extract of late pupae, MUF-triacetylchitotriose substrate
# Method: Chitinase test with soluble extracts from Lucilia cuprina puppae
# Test animals: Cytosol of Lucilia cuprina
# The substances, which are dissolved in DMSO, are provided on 384-well microtiter plates in a concentration of 2 mM, the first four columns being empty. The substances are diluted 1:40 with 100 mM NPP pH 7.0 (50 μM). 5 μl of each of these dilutions are transferred to a 384-well test plate, starting with column 5. Into the first two columns there are pipetted in each case as negative control, into the third and fourth column in each case 5 μl of 5×10^-6 M allosamidin in 2.5% DMSO in 100 mM NPP pH 7.0 5 μl 2.5% DMSO in 100 mM NPP pH 7.0 as positive control.
# The substances are incubated for 20 minutes at room temperature with 2.5 μg of cytosolic extract of late Lucilia cuprina puppae in 10 μl of 100 mM sodium phosphate buffer pH 7.0 and 10 μl of 100 μM methylumbelliferyl (MUF-triacetylchitotriose). The reaction is quenched by addition of 25 μl of 0.5 M glycine buffer 2 M sodium hydroxide, pH 10.4. The inhibition is determined by measuring the relative fluorescence at an excitation of 360±40 nm and an emission of 460±40 nm. The test substances are evaluated in comparison with the inhibition of the enzyme by allosamidin. The inhibition of the release of MUF is a measure for the efficacy of the inhibitor. In subsequent tests, concentration series in the range of from 100 nM to 200 μM are tested, and the release of MUF is measured every 2 minutes before the reaction is quenched.
# Compounds which lead to more than 50% inhibition of chitinase at maximum reaction velocity at 100 μM are assessed as effective.
# [5] = test system: Streptomyces griseus chitinase (Sigma); assay: Chitinase inhibitory activity against Streptomyces griseus chitinase; type: biochemical; details: at 100 μM (37° C.)
# Method: as §1
smiles,measurement,setting,value
"Cc1cc2nc3c(=O)[nH]c(=O)nc-3n(C[C@H](O)[C@H](O)[C@H](O)CO)c2cc1C [compound 1, riboflavin]",mortality against Periplaneta americana third instars,[1],More than 50%
same,inhibition of the Vibrio alginolyticus chitinase,[2],no inhibition
same,IC50,[3]; 20° C.,380 nM
same,IC50,[3]; 37° C.,2100 nM
same,inhibition of the Lucilia cuprina endochitinase,[4]; 10 μM,>>50%
same,inhibition of the Lucilia cuprina endochitinase,[4]; 100 μM,>>50%
same,inhibition of the Lucilia cuprina endochitinase,[4]; 200 μM,>>>50%
same,inhibition of the Streptomyces griseus chitinase,[5],no inhibition
